Laboratory results: publication PMC5995184, “Potent anti-leukemic activity of a specific cyclin-dependent kinase 9 inhibitor in mouse models of chronic lymphocytic leukemia” (Oncotarget, 2018)
Like-named read-outs stand apart in the source and are kept apart here.

Assays:
[1] = system: primary CLL cells (CLL PBMC); experiment: Primary CLL cells apoptosis, viability, MCL-1/BCL-2 (flow cytometry); format: cell-based, human; conditions: for IC50: Homo sapiens, CLL cell, read-out: IC50, absolute number of viable CLL PBMC
Description: The MEC-1 cell line was obtained from the DSMZ (Braunschweig, Germany) and was cultured in RPMI (10% fetal bovine serum). A LDC526 stock solution was prepared with DMSO, diluted and added to the cultures to reach the specified concentrations. Samples (percentage of CD19+CD5+ CLL cells >90%) of n=37 CLL patients (Table 1) and n=6 healthy normal donor controls were used for experiments after obtaining informed consent according to institutional guidelines, approved by the Ethics Commission of the University of Essen-Duisburg. Peripheral blood mononuclear cells (PBMC) were isolated using Lymphoprep ([…] Technologies, Cologne, Germany) density gradient centrifugation and were used directly for NSG transplantation or in vitro experiments. Untouched normal donor B cells were isolated with a B cell isolation kit (Miltenyi, Bergisch Gladbach, Germany) according to the manufacturer’s instructions. For in vitro experiments, cells were maintained in RPMI supplemented with 10% fetal bovine serum, penicillin and streptomycin.
Apoptosis and cell death were determined by using Annexin V (BD Biosciences, Heidelberg, Germany) and 4′,6-Diamidin-2-phenylindol (DAPI, Sigma-Aldrich) staining. Erythrocytes of murine peripheral blood samples were lysed with NH4Cl hypotonic solution. Single cell suspensions of murine spleens were prepared as previously described. Murine cells were stained with antibodies directed against murine CD3 (clone 145-2C11), CD5 (53-7.3) and CD19 (1D3), respectively. For the detection of human cells in NSG spleens antibodies against human CD3 (clone SK7), CD4 (SK3), CD5 (L17F12), CD8 (SK1), CD19 (J3-119 or SJ25C1) and CD45 (2D1) were used (purchased from BD Bioscience, Biolegend and Beckman Coulter). Flow cytometric analysis was carried out on a LSRII flow cytometer (BD Biosciences, Heidelberg, Germany). Flow cytometric data were analyzed with BD FACSDiva or FlowJo software (FLOWJO, LLC, Ashland, OR, USA). Intracellular staining for MCL-1 and BCL-2 (anti-MCL-1 [clone D2W9E, Cell Signaling Technology, Leiden, The Netherlands] and matched isotype control [clone DA1E, Cell Signaling Technology]; anti-BCL-2 [clone Bcl-2/100, BD Bioscience] and matched isotype control [clone MOPC-21, BD Bioscience]) within MEC-1 and primary CLL cells was performed with the FoxP3 / Transcription factor staining buffer set (eBioscience/Thermo Fisher Scientific, Dreieich, Germany) according to the manufacturer’s instructions. Before permeabilization and antibody incubation cells were stained with a fixable viability dye (eFluor 450, eBioscience/Thermo Fisher Scientific). Before adding the anti-MCL-1 and anti-BCL-2 antibodies permeabilized cells were blocked with 2% mouse serum and 2% rabbit serum (Sigma-Aldrich) in permeabilization buffer. Intracellullar murine lymphocyte staining for Bcl-2 was carried out with the BD Cytofix/Cytoperm kit according to the manufacturer’s instructions. A Hamster Anti-mouse Bcl-2 (clone 3F119, BD Biosciences) and a corresponding isotype control (clone A19-3) were used. Dead cells and doublets were excluded by and FSC/SSC gating and positive DAPI or eFluor 450 viability dye staining, respectively. To assess the impact of LDC526 on the cell-cycle status of MEC-1 cells we used the BrdU Flow Kit according to the manufacturer’s protocol (BD Bioscience). BrdU was added to the media 30 minutes before commencing the analysis.
(§1) Data were analyzed with GraphPad Prism 7 software. Differences were assessed by unpaired or paired Student t tests if not indicated otherwise. Two-sided probabilities of less than 0.05 were considered significant. Nonlinear regression sigmoidal dose-response curve fit was used to determine the IC50 values and to generate graphs.

[2] = molecular target: T1, CDK1-Cyclin B1 (Homo sapiens, UniProt P06493); experiment: FRET-based LANCE Ultra in vitro enzymatic kinase assay, CDK1; format: biochemical
T1 construct: purchased Carna Biosciences
Description: IC50 values for CDK inhibitors were determined using the fluorescence resonance energy transfer (FRET)-based LANCE Ultra KinaSelect Ser/Thr kit (Perkin Elmer). Kinase activity and inhibition were measured according to the manufacturer’s instructions and as previously described. […] FRET signals were recorded in a time-resolved manner in a Perkin Elmer EnVision reader. Purified cyclin-kinase pairs were obtained from the following suppliers: Carna Biosciences (CDK1-Cyclin B1, CDK6-Cyclin D3, CDK7-Cyclin H-MAT1), ProQinase (CDK2-Cyclin A) and Invitrogen (CDK9-Cyclin T1).
as §1

[3] = 4 hours, increasing concentrations

T1 sequence (P06493 whole entry): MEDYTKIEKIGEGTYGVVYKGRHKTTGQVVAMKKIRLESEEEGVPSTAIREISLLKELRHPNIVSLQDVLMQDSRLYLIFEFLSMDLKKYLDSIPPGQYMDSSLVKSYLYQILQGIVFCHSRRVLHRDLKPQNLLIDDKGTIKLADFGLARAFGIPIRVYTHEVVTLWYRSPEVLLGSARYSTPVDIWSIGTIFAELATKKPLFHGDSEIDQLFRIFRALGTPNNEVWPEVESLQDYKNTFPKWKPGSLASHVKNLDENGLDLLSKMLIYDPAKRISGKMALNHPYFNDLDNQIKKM
T1 sequence (P14635 whole entry partner): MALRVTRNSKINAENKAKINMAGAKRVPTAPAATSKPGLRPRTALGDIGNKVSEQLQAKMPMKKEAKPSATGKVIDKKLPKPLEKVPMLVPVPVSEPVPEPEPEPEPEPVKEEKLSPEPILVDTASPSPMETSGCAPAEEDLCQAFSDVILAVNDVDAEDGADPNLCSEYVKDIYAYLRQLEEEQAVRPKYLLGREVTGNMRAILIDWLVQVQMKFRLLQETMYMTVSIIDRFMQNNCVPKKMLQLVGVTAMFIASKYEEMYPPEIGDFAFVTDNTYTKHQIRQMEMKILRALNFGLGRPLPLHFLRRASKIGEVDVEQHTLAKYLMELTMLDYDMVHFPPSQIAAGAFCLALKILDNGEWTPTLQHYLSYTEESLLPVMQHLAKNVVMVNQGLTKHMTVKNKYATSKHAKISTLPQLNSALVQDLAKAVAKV

COc1cc(F)ccc1-c1ncnc(Nc2cccc(CS(N)(=O)=O)c2)n1 [LDC526, (3-((4-(4-fluoro-2-methoxyphenyl)-1,3,5-triazin-2-yl)amino)phenyl)methane-sulfonamide]
apoptosis of primary CLL PBMCs (Annexin V) ([1]; 4 hours, 500 and 1000 nM): significantly increased percentages of apoptosis | BCL-2 levels in primary CLL cells [1, 3]: not significantly altered | MCL-1 protein levels in primary CLL cells [1, 3]: significantly decreased MCL-1 protein levels | IC50 ([1]; 24 hours incubation): 0.34 µM | IC50 ([1]; 48 hours incubation): 0.28 µM | LDC526-induced effect between prognostic CLL subgroups (FISH, CD38, Binet, therapy) ([1]; high-risk versus low-risk): no statistically significant differences | selectivity versus CDK9 compared to CDK1 [2]: 82 fold
